Tests used:
Experiment in all cases: SRB assay, IMT combined with inhibitor
Format in all cases: cell-based
MIAPACA2 = MIAPACA2 (pancreas); concentration series of the labelled inhibitor + fixed concentration of IMT (3S)-1-[(2R)-2-[4-(2-chloro-4-fluoro-phenyl)-2-oxo-chromen-7-yl]oxypropanoyl]piperidine-3-carboxylic acid (Table 3: 40 nM, 120 h); negative=synergistic, positive=antagonistic
How it was run: (§1)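 SRB biomass readout; 120 h exposure; 5 mM glucose medium; ≥2 independent replicates. MAPK SOC dilution series + fixed 40 nM (3S)-1-[(2R)-2-[4-(2-chloro-4-fluoro-phenyl)-2-oxo-chromen-7-yl]oxypropanoyl]piperidine-3-carboxylic acid; untreated cells as negative control.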

A673 = A673 (muscle); concentration series of the labelled inhibitor + fixed concentration of IMT (3S)-1-[(2R)-2-[4-(2-chloro-4-fluoro-phenyl)-2-oxo-chromen-7-yl]oxypropanoyl]piperidine-3-carboxylic acid (Table 3: 40 nM, 120 h); negative=synergistic, positive=antagonistic
How it was run: as §1

SKOV3 = SKOV3 (ovary); concentration series of the labelled inhibitor + fixed concentration of IMT (3S)-1-[(2R)-2-[4-(2-chloro-4-fluoro-phenyl)-2-oxo-chromen-7-yl]oxypropanoyl]piperidine-3-carboxylic acid (Table 3: 40 nM, 120 h); negative=synergistic, positive=antagonistic
How it was run: as §1

SW620 = SW620 (colon); concentration series of the labelled inhibitor + fixed concentration of IMT (3S)-1-[(2R)-2-[4-(2-chloro-4-fluoro-phenyl)-2-oxo-chromen-7-yl]oxypropanoyl]piperidine-3-carboxylic acid (Table 3: 40 nM, 120 h); negative=synergistic, positive=antagonistic
How it was run: as §1

A549 = A549 (lung); concentration series of the labelled inhibitor + fixed concentration of IMT (3S)-1-[(2R)-2-[4-(2-chloro-4-fluoro-phenyl)-2-oxo-chromen-7-yl]oxypropanoyl]piperidine-3-carboxylic acid (Table 3: 40 nM, 120 h); negative=synergistic, positive=antagonistic
How it was run: as §1

LOVO = LOVO (colon); concentration series of the labelled inhibitor + fixed concentration of IMT (3S)-1-[(2R)-2-[4-(2-chloro-4-fluoro-phenyl)-2-oxo-chromen-7-yl]oxypropanoyl]piperidine-3-carboxylic acid (Table 3: 40 nM, 120 h); negative=synergistic, positive=antagonistic
How it was run: as §1

COLO205 = COLO205 (colon); concentration series of the labelled inhibitor + fixed concentration of IMT (3S)-1-[(2R)-2-[4-(2-chloro-4-fluoro-phenyl)-2-oxo-chromen-7-yl]oxypropanoyl]piperidine-3-carboxylic acid (Table 3: 40 nM, 120 h); negative=synergistic, positive=antagonistic
How it was run: as §1

GRANTA-519 = GRANTA-519 (hematological); concentration series of the labelled inhibitor + fixed concentration of IMT (3S)-1-[(2R)-2-[4-(2-chloro-4-fluoro-phenyl)-2-oxo-chromen-7-yl]oxypropanoyl]piperidine-3-carboxylic acid (Table 3: 40 nM, 120 h); negative=synergistic, positive=antagonistic
How it was run: as §1

HT29 = HT29 (colon); concentration series of the labelled inhibitor + fixed concentration of IMT (3S)-1-[(2R)-2-[4-(2-chloro-4-fluoro-phenyl)-2-oxo-chromen-7-yl]oxypropanoyl]piperidine-3-carboxylic acid (Table 3: 40 nM, 120 h); negative=synergistic, positive=antagonistic
How it was run: as §1

HCT15 = HCT15 (colon); concentration series of the labelled inhibitor + fixed concentration of IMT (3S)-1-[(2R)-2-[4-(2-chloro-4-fluoro-phenyl)-2-oxo-chromen-7-yl]oxypropanoyl]piperidine-3-carboxylic acid (Table 3: 40 nM, 120 h); negative=synergistic, positive=antagonistic
How it was run: as §1

SKMEL28 = SKMEL28 (skin); concentration series of the labelled inhibitor + fixed concentration of IMT (3S)-1-[(2R)-2-[4-(2-chloro-4-fluoro-phenyl)-2-oxo-chromen-7-yl]oxypropanoyl]piperidine-3-carboxylic acid (Table 3: 40 nM, 120 h); negative=synergistic, positive=antagonistic
How it was run: as §1

BXPC3 = BXPC3 (pancreas); concentration series of the labelled inhibitor + fixed concentration of IMT (3S)-1-[(2R)-2-[4-(2-chloro-4-fluoro-phenyl)-2-oxo-chromen-7-yl]oxypropanoyl]piperidine-3-carboxylic acid (Table 3: 40 nM, 120 h); negative=synergistic, positive=antagonistic
How it was run: as §1

IMR90 = IMR90 (lung); concentration series of the labelled inhibitor + fixed concentration of IMT (3S)-1-[(2R)-2-[4-(2-chloro-4-fluoro-phenyl)-2-oxo-chromen-7-yl]oxypropanoyl]piperidine-3-carboxylic acid (Table 3: 40 nM, 120 h); negative=synergistic, positive=antagonistic
How it was run: as §1

PANC1 = PANC1 (pancreas); concentration series of the labelled inhibitor + fixed concentration of IMT (3S)-1-[(2R)-2-[4-(2-chloro-4-fluoro-phenyl)-2-oxo-chromen-7-yl]oxypropanoyl]piperidine-3-carboxylic acid (Table 3: 40 nM, 120 h); negative=synergistic, positive=antagonistic
How it was run: as §1

Row | SMILES | difference between the calculated combinatorial index (BLISS) and the observed combinatorial effect (MIAPACA2) | difference between the calculated combinatorial index (BLISS) and the observed combinatorial effect (A673) | difference between the calculated combinatorial index (BLISS) and the observed combinatorial effect (SKOV3) | difference between the calculated combinatorial index (BLISS) and the observed combinatorial effect (SW620) | difference between the calculated combinatorial index (BLISS) and the observed combinatorial effect (A549) | difference between the calculated combinatorial index (BLISS) and the observed combinatorial effect (LOVO) | difference between the calculated combinatorial index (BLISS) and the observed combinatorial effect (COLO205) | difference between the calculated combinatorial index (BLISS) and the observed combinatorial effect (GRANTA-519) | difference between the calculated combinatorial index (BLISS) and the observed combinatorial effect (HT29) | difference between the calculated combinatorial index (BLISS) and the observed combinatorial effect (HCT15) | difference between the calculated combinatorial index (BLISS) and the observed combinatorial effect (SKMEL28) | difference between the calculated combinatorial index (BLISS) and the observed combinatorial effect (BXPC3) | difference between the calculated combinatorial index (BLISS) and the observed combinatorial effect (IMR90) | difference between the calculated combinatorial index (BLISS) and the observed combinatorial effect (PANC1)
1 | C[C@H](Nc1ncnc2nc[nH]c12)c1cc2cccc(Cl)c2c(=O)n1-c1ccccc1 [Duvelisib] | −0.0183 | 0.0570 | 0.0398 | −0.0623 | −0.0092 | −0.0219 | −0.0157 | 0.0770 | 0.0216 | 0.0170 | −0.0412 | −0.0109 | 0.0253 | −0.0096
2 | CS(=O)(=O)N1CCN(Cc2cc3nc(-c4cccc5[nH]ncc45)nc(N4CCOCC4)c3s2)CC1 [GDC-0941, 2-(1H-Indazol-4-yl)-6-[[4-(methylsulfonyl)-1-piperazinyl]methyl]-4-(4-morpholinyl)thieno[3,2-d]pyrimidine] | 0.0516 | 0.0099 | 0.0556 | 0.0303 | 0.0023 | −0.0539 | 0.0355 | 0.0647 | 0.1027 | 0.0270 | −0.0330 | 0.0704 | 0.0629 | −0.0128
3 | O=C(c1cc(Cc2n[nH]c(=O)c3ccccc23)ccc1F)N1CCN(C(=O)C2CC2)CC1 [Olaparib] | 0.0529 | 0.0334 | 0.0092 | 0.0198 | 0.0174 | −0.0819 | −0.0607 | −0.0088 | 0.0068 | −0.0472 | −0.0624 | 0.0315 | 0.0084 | −0.0430
4 | O=C(NOC[C@H](O)CO)c1ccc(F)c(F)c1Nc1ccc(I)cc1F [PD 0325901, (R)—N-(2,3-dihydroxypropoxy)-3,4-difluoro-2-((2-fluoro-4-iodophenyl)amino)benzamide] | 0.0500 | 0.0281 | −0.0555 | 0.0316 | −0.0245 | −0.0229 | 0.0261 | 0.0420 | 0.0786 | 0.1249 | 0.0303 | 0.0495 | 0.0387 | 0.1000
